PubChem BioAssay AID1963850 (Molecular Pharmacology Branch, DTP, NCI, 2024)

Test system: 192522-019-R-J2-PDC complex tumor spheroid viability
Test: Anticancer human tumor 192522-019-R-J2-PDC patient-derived colon adenocarcinoma cell line growth inhibition [POLQ]
Details: for IC50: curve of first compound; for viability, T/C: stronger effect = lower value
Outline: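 Three-cell-type spheroids modelling solid tumor plus stroma served as the readout system; POL inhibitors were tested individually and in combination, concentration ranges set by clinical Cmax where known.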

[1] = second compound 0.0316 µM, first compound 0.0316 µM
[2] = second compound 0.0316 µM, first compound 0.1 µM
[3] = second compound 0.0316 µM, first compound 0.316 µM
[4] = second compound 0.0316 µM, first compound 1 µM
[5] = second compound 0.0316 µM, first compound 3.16 µM
[6] = second compound 0.0316 µM, first compound 10 µM
[7] = second compound 0.1 µM, first compound 0.0316 µM
[8] = second compound 0.1 µM, first compound 0.1 µM
[9] = second compound 0.1 µM, first compound 0.316 µM
[10] = second compound 0.1 µM, first compound 1 µM
[11] = second compound 0.1 µM, first compound 3.16 µM
[12] = second compound 0.1 µM, first compound 10 µM
[13] = second compound 0.316 µM, first compound 0.0316 µM
[14] = second compound 0.316 µM, first compound 0.1 µM
[15] = second compound 0.316 µM, first compound 0.316 µM
[16] = second compound 0.316 µM, first compound 1 µM
[17] = second compound 0.316 µM, first compound 3.16 µM
[18] = second compound 0.316 µM, first compound 10 µM
[19] = second compound 1 µM, first compound 0.0316 µM
[20] = second compound 1 µM, first compound 0.1 µM
[21] = second compound 1 µM, first compound 0.316 µM
[22] = second compound 1 µM, first compound 1 µM
[23] = second compound 1 µM, first compound 3.16 µM
[24] = second compound 1 µM, first compound 10 µM
[25] = second compound 3.16 µM, first compound 0.0316 µM
[26] = second compound 3.16 µM, first compound 0.1 µM
[27] = second compound 3.16 µM, first compound 0.316 µM
[28] = second compound 3.16 µM, first compound 1 µM
[29] = second compound 3.16 µM, first compound 3.16 µM
[30] = second compound 3.16 µM, first compound 10 µM
[31] = second compound 10 µM, first compound 0.0316 µM
[32] = second compound 10 µM, first compound 0.1 µM
[33] = second compound 10 µM, first compound 0.316 µM
[34] = second compound 10 µM, first compound 1 µM
[35] = second compound 10 µM, first compound 3.16 µM
[36] = second compound 10 µM, first compound 10 µM
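Further: spheroids exposed to drugs for seven days before reading.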
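Wherever viability, T/C is given: 100% = DMSO vehicle control viability in luminescence.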

CC(=O)O[C@H]1C(=O)[C@@]2(C)[C@H]([C@H](OC(=O)c3ccccc3)[C@]3(O)C[C@H](OC(=O)[C@H](O)[C@@H](NC(=O)c4ccccc4)c4ccccc4)C(C)=C1C3(C)C)[C@]1(OC(C)=O)CO[C@@H]1C[C@@H]2O + COC1C(OC(N)=O)C(O)C(Oc2ccc3c(O)c(NC(=O)c4ccc(O)c(CC=C(C)C)c4)c(=O)oc3c2C)OC1(C)C
IC50 (second compound 0.0316 µM): > 3 µM
IC50 (second compound 0.1 µM): > 3 µM
IC50 (second compound 0.316 µM): > 3 µM
IC50 (second compound 1 µM): > 3 µM
IC50 (second compound 3.16 µM): > 3 µM
IC50 (second compound 10 µM): > 3 µM
viability, T/C (second compound 0.0316 µM, first compound 0.00949 µM): 94.2%
viability, T/C (second compound 0.0316 µM, first compound 0.03 µM): 72.8%
viability, T/C (second compound 0.0316 µM, first compound 0.0949 µM): 56.6%
viability, T/C (second compound 0.0316 µM, first compound 0.3 µM): 55.9%
viability, T/C (second compound 0.0316 µM, first compound 0.949 µM): 55.2%
viability, T/C (second compound 0.0316 µM, first compound 3 µM): 48.5%
viability, T/C (second compound 0.1 µM, first compound 0.00949 µM): 95.6%
viability, T/C (second compound 0.1 µM, first compound 0.03 µM): 74.7%
viability, T/C (second compound 0.1 µM, first compound 0.0949 µM): 59.5%
viability, T/C (second compound 0.1 µM, first compound 0.3 µM): 54.7%
viability, T/C (second compound 0.1 µM, first compound 0.949 µM): 51.6%
viability, T/C (second compound 0.1 µM, first compound 3 µM): 56.9%
viability, T/C (second compound 0.316 µM, first compound 0.00949 µM): 91.6%
viability, T/C (second compound 0.316 µM, first compound 0.03 µM): 78.1%
viability, T/C (second compound 0.316 µM, first compound 0.0949 µM): 59.6%
viability, T/C (second compound 0.316 µM, first compound 0.3 µM): 61.9%
viability, T/C (second compound 0.316 µM, first compound 0.949 µM): 54.6%
viability, T/C (second compound 0.316 µM, first compound 3 µM): 52.4%
viability, T/C (second compound 1 µM, first compound 0.00949 µM): 102%
viability, T/C (second compound 1 µM, first compound 0.03 µM): 80.6%
viability, T/C (second compound 1 µM, first compound 0.0949 µM): 56.6%
viability, T/C (second compound 1 µM, first compound 0.3 µM): 52.7%
viability, T/C (second compound 1 µM, first compound 0.949 µM): 56.1%
viability, T/C (second compound 1 µM, first compound 3 µM): 54%
viability, T/C (second compound 3.16 µM, first compound 0.00949 µM): 99.1%
viability, T/C (second compound 3.16 µM, first compound 0.03 µM): 84.6%
viability, T/C (second compound 3.16 µM, first compound 0.0949 µM): 61.5%
viability, T/C (second compound 3.16 µM, first compound 0.3 µM): 55.8%
viability, T/C (second compound 3.16 µM, first compound 0.949 µM): 56.1%
viability, T/C (second compound 3.16 µM, first compound 3 µM): 59.7%
viability, T/C (second compound 10 µM, first compound 0.00949 µM): 102%
viability, T/C (second compound 10 µM, first compound 0.03 µM): 76.8%
viability, T/C (second compound 10 µM, first compound 0.0949 µM): 57.1%
viability, T/C (second compound 10 µM, first compound 0.3 µM): 55.4%
viability, T/C (second compound 10 µM, first compound 0.949 µM): 64%
viability, T/C (second compound 10 µM, first compound 3 µM): 63.1%

COc1cc(C2c3cc4c(cc3C(OC3OC5COC(C)OC5C(O)C3O)C3COC(=O)C23)OCO4)cc(OC)c1O (stereo unspecified) + COC1C(OC(N)=O)C(O)C(Oc2ccc3c(O)c(NC(=O)c4ccc(O)c(CC=C(C)C)c4)c(=O)oc3c2C)OC1(C)C
IC50 (second compound 0.0316 µM): > 10 µM
IC50 (second compound 0.1 µM): > 10 µM
IC50 (second compound 0.316 µM): > 10 µM
IC50 (second compound 1 µM): > 10 µM
IC50 (second compound 3.16 µM): > 10 µM
IC50 (second compound 10 µM): > 10 µM
viability, T/C [1]: 106%
viability, T/C [2]: 89.3%
viability, T/C [3]: 92.4%
viability, T/C [4]: 82.1%
viability, T/C [5]: 58.6%
viability, T/C [6]: 54.2%
viability, T/C [7]: 104%
viability, T/C [8]: 95.7%
viability, T/C [9]: 100%
viability, T/C [10]: 84%
viability, T/C [11]: 56.8%
viability, T/C [12]: 59.4%
viability, T/C [13]: 95.6%
viability, T/C [14]: 97.8%
viability, T/C [15]: 101%
viability, T/C [16]: 83%
viability, T/C [17]: 55.2%
viability, T/C [18]: 64%
viability, T/C [19]: 106%
viability, T/C [20]: 101%
viability, T/C [21]: 96.6%
viability, T/C [22]: 103%
viability, T/C [23]: 59.7%
viability, T/C [24]: 57.4%
viability, T/C [25]: 110%
viability, T/C [26]: 109%
viability, T/C [27]: 99.9%
viability, T/C [28]: 84.7%
viability, T/C [29]: 67%
viability, T/C [30]: 60.6%
viability, T/C [31]: 107%
viability, T/C [32]: 96.2%
viability, T/C [33]: 103%
viability, T/C [34]: 88.5%
viability, T/C [35]: 65.4%
viability, T/C [36]: 61.4%

O=c1[nH]cc(F)c(=O)[nH]1 + COC1C(OC(N)=O)C(O)C(Oc2ccc3c(O)c(NC(=O)c4ccc(O)c(CC=C(C)C)c4)c(=O)oc3c2C)OC1(C)C
IC50 (second compound 0.0316 µM): > 10 µM
IC50 (second compound 0.1 µM): > 10 µM
IC50 (second compound 0.316 µM): > 10 µM
IC50 (second compound 1 µM): > 10 µM
IC50 (second compound 3.16 µM): > 10 µM
IC50 (second compound 10 µM): > 10 µM
viability, T/C [1]: 99.2%
viability, T/C [2]: 75.7%
viability, T/C [3]: 78.8%
viability, T/C [4]: 72.7%
viability, T/C [5]: 73.8%
viability, T/C [6]: 64.2%
viability, T/C [7]: 91.8%
viability, T/C [8]: 80.3%
viability, T/C [9]: 77.4%
viability, T/C [10]: 71.1%
viability, T/C [11]: 71%
viability, T/C [12]: 75.8%
viability, T/C [13]: 91%
viability, T/C [14]: 82%
viability, T/C [15]: 84.8%
viability, T/C [16]: 73.1%
viability, T/C [17]: 71.1%
viability, T/C [18]: 68.7%
viability, T/C [19]: 89.6%
viability, T/C [20]: 78.7%
viability, T/C [21]: 74.7%
viability, T/C [22]: 77.1%
viability, T/C [23]: 70.7%
viability, T/C [24]: 70.7%
viability, T/C [25]: 92.5%
viability, T/C [26]: 86.5%
viability, T/C [27]: 78.1%
viability, T/C [28]: 72.9%
viability, T/C [29]: 74.8%
viability, T/C [30]: 73.3%
viability, T/C [31]: 92.8%
viability, T/C [32]: 76.3%
viability, T/C [33]: 82.7%
viability, T/C [34]: 73.1%
viability, T/C [35]: 77.6%
viability, T/C [36]: 83.1%
